Assay results reported in patent publication US20230047825A1, “ANTIMICROBIAL PEPTIDES” (priority 2019, published 2023).
≈ marks a conversion by molar mass, not a printed value. Like-named read-outs stand apart in the source and are kept apart here.

Key:
[1] = system: Staphylococcus aureus VRS-2 (VanA, VRSA); test: microbe, parasite or virus in culture; conditions: for MIC: Staphylococcus aureus, VRSA
Protocol: (§1) The S. aureus strains ATCC 29213, ATCC 19636, ATCC 33591 (MRSA), BAA-1556 (MRSA USA 300) were obtained from the American Type Culture Collection (ATCC). […] The species identity was confirmed with 16S rRNA analysis.
(§2) Two broth mediums were used, Mueller Hinton Broth and RPMI 1640+5% fetal bovine serum. Test substances were evaluated in 11-point titrations and performed in duplicate.
(§3) The direct colony suspension method was used to prepare inoculated broth. Isolated colonies were taken from an 18-24 h culture plate. Optical density measurements (OD620nm) were used to estimate the bacterial density. […] The stock solutions were diluted by 2-fold serial titrations with their respective vehicles for a total of 11 concentrations.
(§4) A 4 μL aliquot of each dilution was added to 196 μL of broth medium seeded with the organism in wells of a sterilized 96 well polypropylene plate (Nunc™ 249949) using aluminum foil as cover. The final bacterial count was 2 to 8×10^5 CFU/mL. […] The final test article concentration range was 32 to 0.0313 μg/mL.
(§5) Each test substance dilution was evaluated in duplicate on one test occasion. […] Plates were incubated at 35-37° C. for 18 h. The test plates were visually examined and each well was visually scored for growth or complete inhibition of growth. The MIC value was recorded.

[2] = system: Staphylococcus aureus ATCC BAA-1556 (USA300, MRSA); test: microbe, parasite or virus in culture; conditions: for MIC: Staphylococcus aureus
Protocol: as §1, §2, §3, §4, §5

[3] = system: Staphylococcus aureus ATCC 29213; test: microbe, parasite or virus in culture; conditions: for MIC: Staphylococcus aureus
Protocol: as §1, §2, §3, §4, §5

[4] = system: Staphylococcus aureus ATCC 19636 (Smith); test: microbe, parasite or virus in culture; conditions: for MIC: Staphylococcus aureus
Protocol: as §1, §2, §3, §4, §5

[5] = system: Staphylococcus aureus ATCC 33591 (MRSA); test: microbe, parasite or virus in culture; conditions: for MIC: Staphylococcus aureus
Protocol: as §1, §2, §3, §4, §5

[6] = system: EMRSA-15 lung infection
Protocol: Murine EMRSA-15 lung infection model. In one embodiment this was carried out using the method described previously,^58 an overnight culture of EMRSA-15 was prepared in tryptic soy broth (TSB). EMRSA-15 was cultured in TSB overnight at 37° C., adjusted to a starting OD600 of 0.025, and grown for additional 4 h for agar beads preparation. EMRSA-15 was embedded into agar beads by mixing the overnight culture with molten tryptic soy agar, which was then spun into warmed mineral oil. The preparation was cooled and centrifuged at 2,700 g, the remaining oil was eliminated and the beads were washed in sterile PBS. The colony forming unit (cfu) content of the beads slurry was subsequently quantified on TSA plates and the beads slurry then diluted to either 2×10^7 cfu/ml in sterile PBS to deliver a final dose of either 1×10^6 cfu/mouse. Animal work was performed in accordance with the Animals (Scientific Procedures) Act of 1986 (United Kingdom). On day 0, male C57B16J mice (8-10 weeks, Charles River) were anesthetized under Isoflurane and 50 μl inoculum of EMRSA-15 embedded in agar beads (10^6 cfu/mouse) was instilled directly into the respiratory tract via oropharyngeal dosing (o.a) to reduce severity associated with surgery. Sham control mice were inoculated with sterile PBS agar beads. […] Body weight was measured daily, and animals monitored at regular intervals for signs of pain and distress. 48 hours post pulmonary infection, animals were terminally euthanized using 25% Urethane via intra-peritoneal injection. Lungs, were removed and homogenized in 2 ml PBS. Samples were serially diluted 1:10 in PBS and plated for CFU count. Lung homogenates were then centrifuged at 14000 rpm for 30 min at 4° C. and the supernatants were stored at −80° C. for future analysis. For bronchoalveolar lavage fluid collection and analysis (total and differential cell count), a 22-gauge catheter was inserted into the trachea and BAL was recovered by instillation of 0.5 ml of sterile PBS three times and total cells counts were performed by adding Turks stain in a 1:1 ratio. Total cells were then enumerated on an improved Naubauer haemocytometer. BAL fluid was then centrifuged, and supernatants were stored at −20° C. Cytospin slides were prepared and 100 μl of BAL was added into a cytospin funnel and centrifuged at 1000 rpm for 1 minute on a medium acceleration. The slides were then stained using Diff-Quick (Dade, Biomap, Italy).
More suitably Murine EMRSA-15 lung infection model was carried out using the method described previously,^58 an overnight culture of EMRSA-15 was prepared in tryptic soy broth (TSB). EMRSA-15 was cultured in TSB overnight at 37° C., adjusted to a starting OD600 of 0.025, and grown for additional 4 h for agar beads preparation. EMRSA-15 was embedded into agar beads by mixing the overnight culture with molten tryptic soy agar, which was then spun into warmed mineral oil. The preparation was cooled and centrifuged at 2,700 g, the remaining oil was eliminated, and the beads were washed in sterile PBS. The colony forming unit (CFU) content of the beads slurry was subsequently quantified on TSA plates and the beads slurry then diluted to either 2×10^7 CFU/ml in sterile PBS to deliver a final dose of either 1×10^6 CFU/mouse. Animal work was performed in accordance with the Animals (Scientific Procedures) Act of 1986 (United Kingdom). On day 0, male C57B16J mice (8-10 weeks, Charles River) were anesthetized under Isoflurane and 50 μl inoculum of EMRSA-15 embedded in agar beads (10^6 CFU/mouse) was instilled directly into the respiratory tract via oropharyngeal dosing (o.a.) to reduce severity associated with surgery. Sham control mice were inoculated with sterile PBS agar beads.

[7] = system: P. aeruginosa RP73 lung infection; test: Murine P. aeruginosa RP73 lung infection model; assay type: in vivo, mouse
[8] = system: VS Enterococcus faecalis NCTC 775; test: Antibacterial activity assay (broth microdilution MIC); assay type: cell-based; conditions: VSE775; medium and unit not given; in µg/mL
[9] = system: Acinetobacter baumannii ATCC 17978; assay type: cell-based; conditions: AB17978; medium and unit not given; in µg/mL
[10] = system: HeLa; test: Cytotoxicity assay (XTT); assay type: cell-based, human; parameters: Toxicity HeLa: unit not given beside the values; conditions: unit not given
Protocol: (§6) Cytotoxicity assay. HeLa and HEK293 cell lines were purchased from ECACC and cultured in Eagle's Minimum Essential Media (EMEM) containing glutamine, supplemented with 10% FBS and 1× non-essential amino acids (NEAA) at 37° C., 10% CO2. Cytotoxicity was measured by incubating starter cultures of cells for 24 hours in a 96 well plate, gently removing the supernatant and replacing it with dilutions of peptides and controls, incubating for a further 24 hours and then staining of the cells with the second generation tetrazolium dye, XTT. […]

[11] = system: Acinetobacter baumannii AYE; assay type: cell-based; conditions: AYE; medium and unit not given; in µg/mL
[12] = system: Escherichia coli NCTC 12923; assay type: cell-based; conditions: EC12923; medium and unit not given; in µg/mL
[13] = system: Pseudomonas aeruginosa PA01; test: Antibacterial activity assay (broth microdilution MIC); assay type: cell-based; conditions: medium and unit not given, in µg/mL
[14] = system: Klebsiella pneumoniae NCTC 13368; assay type: cell-based; conditions: KP13368; medium and unit not given; in µg/mL
[15] = system: MS Staphylococcus aureus ATCC 9144; assay type: cell-based; conditions: MSSA9144; medium and unit inferred
[16] = system: C. albicans; test: MIC on initial panels, fungi; assay type: cell-based; conditions: unit inferred
[17] = system: Pseudomonas aeruginosa NCTC 13437; test: Antibacterial activity assay (broth microdilution MIC); assay type: cell-based; conditions: PA13437; medium and unit not given; in µg/mL
[18] = system: EMR Staphylococcus aureus-16 (EMRSA-16); assay type: cell-based; conditions: EMRSA16; medium and unit not given; in µg/mL
[19] = system: EMR Staphylococcus aureus-15 (EMRSA-15); assay type: cell-based; conditions: EMRSA15; medium and unit inferred
[20] = system: VRE12201; test: Antibacterial activity assay (broth microdilution MIC); assay type: cell-based, Enterococcus faecalis; conditions: medium and unit inferred
Excerpt: Antibacterial activity assay.
The bacterial strains used are as in the above examples. A table of strains is provided below to aid understanding.

[21] = system: Klebsiella pneumoniae M6; assay type: cell-based; conditions: medium and unit not given, in µg/mL
[22] = system: HEK293; test: Cytotoxicity assay (XTT); assay type: cell-based, human; conditions: unit not given
Protocol: as §6

## CN[C@H](CC(C)C)C(=O)N[C@H]1C(=O)N[C@@H](CC(N)=O)C(=O)N[C@H]2C(=O)N[C@H]3C(=O)N[C@H](C(=O)N[C@H](C(=O)O)c4cc(O)cc(O)c4-c4cc3ccc4O)[C@H](O)c3ccc(c(Cl)c3)Oc3cc2cc(c3O[C@@H]2O[C@H](CO)[C@@H](O)[C@H](O)[C@H]2O[C@H]2C[C@](C)(N)[C@H](O)[C@H](C)O2)Oc2ccc(cc2Cl)[C@H]1O [Vancomycin]
[1]; 18 h, read-out: MIC, antibiotic susceptibility, VRS-2, CLSI M7-A10, unit inferred
  MIC: > 64 µg/mL
[1]; VRS-2, MHB
  MIC: 4 µg/mL (≈ 2.76 µM)
[1]; VRS-2, RPMI + 5% FBS
  MIC: > 32 µg/mL
[1]; VRS-2
  susceptibility category (CLSI M100 interpretive criteria): R
[2]; BAA-1556
  susceptibility category (CLSI M100 interpretive criteria): S
[2]; ATCC BAA-1556, MHB
  MIC: 0.5 µg/mL (≈ 0.345 µM)
[2]; ATCC BAA-1556, RPMI + 5% FBS
  MIC: 2 µg/mL
[2]; ATCCBAA1556|BAA1556|MRSA|USA300, 18 h, read-out: MIC, antibiotic susceptibility, BAA-1556, CLSI M7-A10, unit inferred
  MIC: 0.5 to 1 µg/mL (≈ 0.345 to 0.69 µM)
[3]; ATCC 29213
  susceptibility category (CLSI M100 interpretive criteria): S
[3]; ATCC29213, 18 h, read-out: MIC, antibiotic susceptibility, ATCC 29213, CLSI M7-A10, unit inferred
  MIC: 0.5 to 1 µg/mL (≈ 0.345 to 0.69 µM)
[3]; ATCC29213, ATCC 29213, MHB
  MIC: 0.5 µg/mL (≈ 0.345 µM)
[3]; ATCC29213, ATCC 29213, RPMI + 5% FBS
  MIC: 2 µg/mL
[4]; ATCC 19636 (Smith)
  susceptibility category (CLSI M100 interpretive criteria): S
[4]; ATCC19636, 18 h, read-out: MIC, antibiotic susceptibility, ATCC 19636 (Smith), CLSI M7-A10, unit inferred
  MIC: 1 µg/mL (≈ 0.69 µM)
[4]; ATCC19636, ATCC 19636 (Smith), MHB
  MIC: 0.5 µg/mL (≈ 0.345 µM)
[4]; ATCC19636, ATCC 19636 (Smith), RPMI + 5% FBS
  MIC: 2 µg/mL
[5]; ATCC 33591
  susceptibility category (CLSI M100 interpretive criteria): S
[5]; ATCC 33591, MHB
  MIC: 1 µg/mL (≈ 0.69 µM)
[5]; ATCC 33591, RPMI + 5% FBS
  MIC: 4 µg/mL
[5]; ATCC33591|MRSA, 18 h, read-out: MIC, antibiotic susceptibility, ATCC 33591, CLSI M7-A10, unit inferred
  MIC: 1 µg/mL (≈ 0.69 µM)
[6]; following therapy, i.v.
  IL-6 and neutrophil recruitment in BAL: reduced
  macrophage numbers, TNFα and MCP-1 levels in BAL: No effects
[6]; murine EMRSA-15 lung infection
  effective cumulative dose over 48 hrs: 200 mg/kg
[6]; vancomycin 600 mg/kg or the two higher D-pleurocidin-KR doses (15, 1.5 mg/kg cumulative)
  mouse KC levels in BAL: KC levels to fall to that of the uninfected group

## NC[C@H]1O[C@H](O[C@H]2[C@H](O)[C@@H](O[C@H]3O[C@H](CO)[C@@H](O)[C@H](N)[C@H]3O)[C@H](N)C[C@@H]2N)[C@H](N)C[C@@H]1O [tobramycin]
[7]; 25 mg/kg tobramycin (p=0.0919)
  reduction in lung CFU: 0.8 log10
[7]; cumulative dose of 200 mg/kg tobramycin over 30 hours
  reduction in lung CFU: 1.4 log10

## GWGSFFRRAAHAGRHAGRAALTHYL-NH2 [D-pleuro-VAKR, 6x substituted (4 K->R plus 2 V->A), D-amino acids]
[8]
  MIC on initial panels: 32-64
[9]
  MIC on initial panels: 2
[10]
  Toxicity HeLa: 124.0 ± 30.4
[11]
  MIC on initial panels: 2
[12]
  MIC on initial panels: 2
[13]
  MIC on initial panels: 4
[14]
  MIC on initial panels: 4-8
[15]
  MIC on initial panels: 8 µg/mL
[16]
  MIC on initial panels, Fungi: 32 µg/mL
[17]
  MIC on initial panels: 32
[18]
  MIC on initial panels: 64
[19]
  MIC on initial panels: 32 µg/mL
[20]
  MIC on initial panels: 128 µg/mL
[21]
  MIC on initial panels: 4
[22]
  Toxicity HEK293: 201.2 ± 25.1
